Tests used:
[1] = test system: HCT-116 (Human Colorectal Cancer Cells); test: Cell-growth suppressive effect against HCT-116 cells (WST-8 method); assay type: cell-based; settings: 72 h, 3 days incubation with medicament, read-out: 50% Growth Inhibiting Activity (IC50, μM) HCT-116 Cells
Method: (§1) Method for Judging the Pharmaceutical Effect using Cells
(§2) Fetal calf serum (FCS) was purchased from Molgate and a DMEM medium was purchased from Asahi Techno Glass.
(§3) MKN-45, human stomach cancer cell, was purchased from the Immune Biology Laboratory. HCT 116, human colorectal cancer cell, was purchased from the American Type Culture Collection (ATCC).
(§4) Cells were suspended in a DMEM medium to which 10% of FCS were added, and a cell suspension was dispensed to a 96-well plastic plate to an extent of 1000 cells/50 microliters per well. Incubation was carried out at 37° C. for one night in 5% CO2-95% air. Each medicament was subjected to a gradient dilution using dimethyl sulfoxide or an appropriate solvent and each 50 microliters were dispensed to a microplate to which cells were sowed previously. Incubation was carried out for 3 days more at 37° C. in 5% CO2-95% air.

[2] = test system: MKN-45 (Human Stomach Cancer Cells); test: Cell-growth suppressive effect against MKN-45 cells (WST-8 method); assay type: cell-based; settings: 72 h, 3 days incubation with medicament, read-out: 50% Growth Inhibiting Activity (IC50, μM) MKN-45 Cells
Method: as §1, §2, §3, §4

## O=C1c2c(c3c4ccc(O)cc4n([C@@H]4O[C@H](CO)[C@@H](O)[C@H](O)[C@H]4O)c3c3[nH]c4cc(O)ccc4c23)C(=O)N1NCc1cc[nH]n1 [Example 14, 6-N-(3-1H-pyrazolylmethyl)amino-12,13-dihydro-2,10-dihydroxy-12-β-D-glucopyranosyl-5H-indolo[2,3-a]pyrrolo[3,4-c]carbazole-5,7(6H)-dione]
[1]
  IC50: 0.0012 µM

## O=C1c2c(c3c4ccc(O)cc4n([C@@H]4O[C@H](CO)[C@@H](O)[C@H](O)[C@H]4O)c3c3[nH]c4cc(O)ccc4c23)C(=O)N1OCc1cccc(CO)n1 [Example 19, 6-N-(6-hydroxymethyl-2-pyridylmethoxy)-12,13-dihydro-2,10-dihydroxy-12-β-D-glucopyranosyl-5H-indolo[2,3-a]pyrrolo[3,4-c]carbazole-5,7(6H)-dione]
[1]
  IC50: 0.0037 µM

## O=C1c2c(c3c4ccc(O)cc4n([C@@H]4O[C@H](CO)[C@@H](O)[C@H](O)[C@H]4O)c3c3[nH]c4cc(O)ccc4c23)C(=O)N1NCc1c[nH]cn1 [Example 15, 6-N-(4-1H-imidazolylmethyl)amino-12,13-dihydro-2,10-dihydroxy-12-β-D-glucopyranosyl-5H-indolo[2,3-a]pyrrolo[3,4-c]carbazole-5,7(6H)-dione]
[1]
  IC50: 0.0016 µM

## O=C1c2c(c3c4ccc(O)cc4n([C@@H]4O[C@H](CO)[C@@H](O)[C@H](O)[C@H]4O)c3c3[nH]c4cc(O)ccc4c23)C(=O)N1OCc1ccncc1 [Example 18, 6-N-(4-pyridylmethoxy)-12,13-dihydro-2,10-dihydroxy-12-β-D-glucopyranosyl-5H-indolo-[2,3-a]pyrrolo[3,4-c]carbazole-5,7(6H)-dione]
[1]
  IC50: 0.0023 µM

## O=C1c2c(c3c4ccc(O)cc4n([C@@H]4O[C@H](CO)[C@@H](O)[C@H](O)[C@H]4O)c3c3[nH]c4cc(O)ccc4c23)C(=O)N1CCc1ccncc1 [Example 39, 6-N-(2-(4-pyridyl)ethyl)-12,13-dihydro-2,10-dihydroxy-12-β-D-glucopyranosyl-5H-indolo-[2,3-a]pyrrolo[3,4-c]carbazole-5,7(6H)-dione]
[1]
  IC50: 0.005 µM

## O=C1c2c(c3c4ccc(O)cc4n([C@@H]4O[C@H](CO)[C@@H](O)[C@H](O)[C@H]4O)c3c3[nH]c4cc(O)ccc4c23)C(=O)N1NCc1cc([N+](=O)[O-])c[nH]1 [Example 10, 6-N-(4-nitro-2-1H-pyrrolylmethyl)amino-12,13-dihydro-2,10-dihydroxy-12-β-D-glucopyranosyl-5H-indolo[2,3-a]pyrrolo[3,4-c]carbazole-5,7(6H)-dione]
[2]
  IC50: 0.004 µM

## O=C1c2c(c3c4ccc(O)cc4n([C@@H]4O[C@H](CO)[C@@H](O)[C@H](O)[C@H]4O)c3c3[nH]c4cc(O)ccc4c23)C(=O)N1NCc1ccc[nH]1 [Example 12, 6-N-(2-1H-pyrrolylmethyl)amino-12,13-dihydro-2,10-dihydroxy-12-β-D-glucopyranosyl-5H-indolo[2,3-a]pyrrolo[3,4-c]carbazole-5,7(6H)-dione]
[2]
  IC50: 0.002 µM

## COC(=O)c1cccc(CNN2C(=O)c3c(c4c5ccc(O)cc5n([C@@H]5O[C@H](CO)[C@@H](O)[C@H](O)[C@H]5O)c4c4[nH]c5cc(O)ccc5c34)C2=O)n1 [Example 16, 6-N-(2-methoxycarbonyl-6-pyridylmethyl)amino-12,13-dihydro-2,10-dihydroxy-12-β-D-glucopyranosyl-5H-indolo[2,3-a]pyrrolo[3,4-c]carbazole-5,7(6H)-dione]
[1]
  IC50: 0.0049 µM

## O=C1c2c(c3c4ccc(O)cc4n([C@@H]4O[C@H](CO)[C@@H](O)[C@H](O)[C@H]4O)c3c3[nH]c4cc(O)ccc4c23)C(=O)N1OCc1ccncc1CO [Example 30, 6-N-(3-hydroxymethyl-4-pyridylmethoxy)-12,13-dihydro-2,10-dihydroxy-12-β-D-glucopyranosyl-5H-indolo[2,3-a]pyrrolo[3,4-c]carbazole-5,7(6H)-dione]
[1]
  IC50: 0.00076 µM

## O=C1c2c(c3c4ccc(O)cc4n([C@@H]4O[C@H](CO)[C@@H](O)[C@H](O)[C@H]4O)c3c3[nH]c4cc(O)ccc4c23)C(=O)N1NCc1cnccn1 [Example 5, 6-N-pyrazinylmethylamino-12,13-dihydro-2,10-dihydroxy-12-β-D-glucopyranosyl-5H-indolo-[2,3-a]pyrrolo[3,4-c]carbazole-5,7(6H)-dione]
[2]
  IC50: 0.0028 µM

## O=C1c2c(c3c4ccc(O)cc4n([C@@H]4O[C@H](CO)[C@@H](O)[C@H](O)[C@H]4O)c3c3[nH]c4cc(O)ccc4c23)C(=O)N1NCc1ccnc2ccccc12 [Example 6, 6-N-(4-quinolinylmethylamino)-12,13-dihydro-2,10-dihydroxy-12-β-D-glucopyranosyl-5H-indolo[2,3-a]pyrrolo[3,4-c]carbazole-5,7(6H)-dione]
[2]
  IC50: 0.0014 µM

## O=C1c2c(c3c4ccc(O)cc4n([C@@H]4O[C@H](CO)[C@@H](O)[C@H](O)[C@H]4O)c3c3[nH]c4cc(O)ccc4c23)C(=O)N1NCc1cc(CO)sc1CO [Example 4, 6-N-(2,5-dihydroxymethyl-3-thienylmethyl)amino-12,13-dihydro-2,10-dihydroxy-12-β-D-glucopyranosyl-5H-indolo[2,3-a]pyrrolo[3,4-c]carbazole-5,7(6H)-dione]
[2]
  IC50: 0.0012 µM

Source: US20070042975A1, “Novel indolopyrrolocarbazole derivative with antitumor activity” (priority 2003, published 2007)
